Measurements: PubChem BioAssay AID2060363 (Molecular Pharmacology Branch, DTP, NCI, 2025)

Test system: 156681-154-R-J1-PDC tumor spheroids, viability % test/control
Test: Anticancer human tumor 156681-154-R-J1-PDC patient-derived melanoma cell line growth inhibition [TAK]
Details: spheroids with HUVEC and MSC; for IC50: curve of first compound; for viability, T/C: stronger effect = lower value
How it was run: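 Drug combinations, each paired with TAK-243 or ipatasertib, were tested on multi-cell spheroids of 60% malignant cells, 25% HUVEC and 15% hMSC. Top concentrations were at or near the clinical Cmax (10 microM if undetermined), decreasing by half-log; viability is given as % test/control.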

[1] = second compound 0.3 µM, first compound 0.00949 µM
[2] = second compound 0.3 µM, first compound 0.03 µM
[3] = second compound 0.949 µM, first compound 0.00949 µM
[4] = second compound 0.949 µM, first compound 0.03 µM
[5] = second compound 3 µM, first compound 0.00949 µM
[6] = second compound 3 µM, first compound 0.03 µM
[7] = second compound 9.49 µM, first compound 0.00949 µM
[8] = second compound 9.49 µM, first compound 0.03 µM
[9] = second compound 30 µM, first compound 0.00949 µM
[10] = second compound 30 µM, first compound 0.03 µM
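Also: spheroids exposed to compounds for 7 days before the endpoint.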

## Cn1cnc2c(F)c(Nc3ccc(Br)cc3Cl)c(C(=O)NOCCO)cc21 + CC(C)NCC(C(=O)N1CCN(c2ncnc3c2C(C)CC3O)CC1)c1ccc(Cl)cc1
Second compound 0.3 µM
  IC50: 602 nM
Second compound 0.949 µM
  IC50: 493 nM
Second compound 3 µM
  IC50: 331 nM
Second compound 9.49 µM
  IC50: < 9.49 nM
Second compound 30 µM
  IC50: < 9.49 nM
[1]
  viability, T/C: 96.6%
[2]
  viability, T/C: 97%
Second compound 0.3 µM, first compound 0.0949 µM
  viability, T/C: 83.8%
Second compound 0.3 µM, first compound 0.3 µM
  viability, T/C: 81.2%
Second compound 0.3 µM, first compound 0.949 µM
  viability, T/C: 30%
Second compound 0.3 µM, first compound 3 µM
  viability, T/C: 9.69%
[3]
  viability, T/C: 81.1%
[4]
  viability, T/C: 78.3%
Second compound 0.949 µM, first compound 0.0949 µM
  viability, T/C: 86.2%
Second compound 0.949 µM, first compound 0.3 µM
  viability, T/C: 71.3%
Second compound 0.949 µM, first compound 0.949 µM
  viability, T/C: 21.4%
Second compound 0.949 µM, first compound 3 µM
  viability, T/C: 7.25%
[5]
  viability, T/C: 69.1%
[6]
  viability, T/C: 73.4%
Second compound 3 µM, first compound 0.0949 µM
  viability, T/C: 68.6%
Second compound 3 µM, first compound 0.3 µM
  viability, T/C: 53.6%
Second compound 3 µM, first compound 0.949 µM
  viability, T/C: 13.1%
Second compound 3 µM, first compound 3 µM
  viability, T/C: 4.67%
[7]
  viability, T/C: 43.3%
[8]
  viability, T/C: 44.8%
Second compound 9.49 µM, first compound 0.0949 µM
  viability, T/C: 36.6%
Second compound 9.49 µM, first compound 0.3 µM
  viability, T/C: 24.6%
Second compound 9.49 µM, first compound 0.949 µM
  viability, T/C: 7.73%
Second compound 9.49 µM, first compound 3 µM
  viability, T/C: 1.63%
[9]
  viability, T/C: 20.6%
[10]
  viability, T/C: 17.8%
Second compound 30 µM, first compound 0.0949 µM
  viability, T/C: 15.7%
Second compound 30 µM, first compound 0.3 µM
  viability, T/C: 10.4%
Second compound 30 µM, first compound 0.949 µM
  viability, T/C: 2.66%
Second compound 30 µM, first compound 3 µM
  viability, T/C: 0.54%

## CC(=O)Nc1cccc(-n2c(=O)n(C3CC3)c(=O)c3c(Nc4ccc(I)cc4F)n(C)c(=O)c(C)c32)c1 + CC(C)NCC(C(=O)N1CCN(c2ncnc3c2C(C)CC3O)CC1)c1ccc(Cl)cc1
Second compound 0.3 µM
  IC50: 3.28 nM
Second compound 0.949 µM
  IC50: 3.04 nM
Second compound 3 µM
  IC50: 1.39 nM
Second compound 9.49 µM
  IC50: < 0.0949 nM
Second compound 30 µM
  IC50: < 0.0949 nM
Second compound 0.3 µM, first compound 94.9 pM
  viability, T/C: 92%
Second compound 0.3 µM, first compound 0.0003 µM
  viability, T/C: 105%
Second compound 0.3 µM, first compound 0.000949 µM
  viability, T/C: 95.2%
Second compound 0.3 µM, first compound 0.003 µM
  viability, T/C: 53.3%
[1]
  viability, T/C: 11%
[2]
  viability, T/C: 7.15%
Second compound 0.949 µM, first compound 94.9 pM
  viability, T/C: 88.9%
Second compound 0.949 µM, first compound 0.0003 µM
  viability, T/C: 89.2%
Second compound 0.949 µM, first compound 0.000949 µM
  viability, T/C: 84.2%
Second compound 0.949 µM, first compound 0.003 µM
  viability, T/C: 50.8%
[3]
  viability, T/C: 8.92%
[4]
  viability, T/C: 6.03%
Second compound 3 µM, first compound 94.9 pM
  viability, T/C: 72.3%
Second compound 3 µM, first compound 0.0003 µM
  viability, T/C: 69.3%
Second compound 3 µM, first compound 0.000949 µM
  viability, T/C: 63.6%
Second compound 3 µM, first compound 0.003 µM
  viability, T/C: 22.9%
[5]
  viability, T/C: 7.24%
[6]
  viability, T/C: 2.71%
Second compound 9.49 µM, first compound 94.9 pM
  viability, T/C: 43.4%
Second compound 9.49 µM, first compound 0.0003 µM
  viability, T/C: 43.6%
Second compound 9.49 µM, first compound 0.000949 µM
  viability, T/C: 31.1%
Second compound 9.49 µM, first compound 0.003 µM
  viability, T/C: 13%
[7]
  viability, T/C: 3.14%
[8]
  viability, T/C: 0.73%
Second compound 30 µM, first compound 94.9 pM
  viability, T/C: 17.9%
Second compound 30 µM, first compound 0.0003 µM
  viability, T/C: 18.9%
Second compound 30 µM, first compound 0.000949 µM
  viability, T/C: 11.8%
Second compound 30 µM, first compound 0.003 µM
  viability, T/C: 4.9%
[9]
  viability, T/C: 1.63%
[10]
  viability, T/C: 0.28%
